Source: patent US9051342B2 (priority 2004, dated 2015)
Values joined by “and” are separate entries in the source; they are usually repeats but may differ in a detail not shown here. Equal entries are not always repeated. Structures can show the parent of a compound that is named as a salt.

COc1ccc(-c2cn(-c3ccc(C(=O)O)cc3)nn2)c(C)c1 [Compound 274, 4-[4-(4-Methoxy-2-methyl-phenyl)-[1,2,3]triazol-1-yl]-benzoic acid]
melting point: 244 to 245 °C

O=C(O)c1cccc(-n2cnc(-c3ccccc3)c2)c1 [Compound 262, 3-(4-Phenyl-imidazol-1-yl)-benzoic acid]
melting point: 277 to 279 °C

O=C(O)c1cccc(-n2ncc3c2Cc2ccccc2-3)c1 [Compound 136, 3-(8H-Indeno[2,1-c]pyrazol-1-yl)-benzoic acid]
melting point: 241 to 243 °C

O=C(O)c1cccc(-c2ccn(-c3ccc4c(c3)OCO4)n2)c1 [Compound 87, 3-(1-Benzo[1,3]dioxol-5-yl-1H-pyrazol-3-yl)-benzoic acid]
melting point: 210 to 215 °C

O=C(O)c1ccc(-n2cc(-c3ccc([N+](=O)[O-])cc3)cn2)cc1 [Compound 102, 4-[4-(4-Nitro-phenyl)-pyrazol-1-yl]-benzoic acid]
melting point: 276 to 277 °C

O=C(O)c1ccc(-n2cc(-c3cccc(OC(F)F)c3)cn2)cc1 [Compound 214]
melting point: 220 to 222 °C

COc1ccc(-n2ccc(-c3cccc(C(=O)O)c3)n2)cc1 [Compound 76, 3-[1-(4-Methoxy-phenyl)-1H-pyrazol-3-yl]-benzoic acid]
melting point: 160 to 161 °C

O=C(O)c1ccc(-n2cc(-c3cccc(F)c3)nn2)cc1 [Compound 265, 4-[4-(3-Fluoro-phenyl)-[1,2,3]triazol-1-yl]-benzoic acid]
melting point: 327 to 328 °C

Cc1ccc(-n2cc(-c3cccc(C(=O)O)c3)cn2)cc1Cl [Compound 230, 3-[1-(3-Chloro-4-methyl-phenyl)-1H-pyrazol-4-yl]-benzoic acid]
melting point: 209 to 211 °C

O=C(O)c1ccc(-n2cc3c(n2)-c2cccc(OC(F)F)c2C3)cc1 [Compound 188, 4-(5-Difluoromethoxy-4H-indeno[1,2-c]pyrazol-2-yl)-benzoic acid]
melting point: 277 to 278 °C

COc1cccc(-c2ccn(-c3cccc(C(=O)O)c3)n2)c1 [Compound 220, 3-[3-(3-Methoxy-phenyl)-pyrazol-1-yl]-benzoic acid]
melting point: 179 to 180 °C

O=C(O)c1cccc(-n2ccc(-c3ccc(OC(F)(F)F)cc3)n2)c1 [Compound 95, 3-[3-(4-Trifluoromethoxy-phenyl)-pyrazol-1-yl]-benzoic acid]
melting point: 191 to 194 °C

O=C(O)c1cccc(-c2nn(-c3cccc(F)c3)c(=O)[nH]2)c1 [Compound 42, 3-[1-(3-Fluoro-phenyl)-5-oxo-4,5-dihydro-1H-[1,2,4]triazol-3-yl]-benzoic acid]
melting point: > 310 °C

O=C(O)c1ccc(-c2ccn(-c3cc(F)cc(F)c3)c2)cc1 [Compound 153, 4-[1-(3,5-Difluoro-phenyl)-1H-pyrrol-3-yl]-benzoic acid]
melting point: 243 to 245 °C

Cc1ccc(-n2cc(-c3cccc(C(=O)O)c3)cn2)cc1 [Compound 177, 3-(1-p-Tolyl-1H-pyrazol-4-yl)-benzoic acid]
melting point: 229 to 231 °C

O=C(O)c1cccc(-c2ccn(-c3cccc(OCc4ccccc4)c3)n2)c1 [Compound 175, 3-[1-(3-Benzyloxy-phenyl)-1H-pyrazol-3-yl]-benzoic acid]
melting point: 152 to 153 °C

O=C(O)c1cccc(-n2cc(-c3cccc(F)c3)cn2)c1 [Compound 213, 3-[4-(3-Fluoro-phenyl)-pyrazol-1-yl]-benzoic acid]
melting point: 228 to 230 °C

O=C(O)c1cccc(-c2ncn(-c3ccc(C(F)(F)F)cc3)n2)c1 [Compound 18, 3-[1-(4-Trifluoromethyl-phenyl)-1H-[1,2,4]triazol-3-yl]-benzoic acid]
melting point: 141 to 143 °C

N#Cc1cccc(-c2nn(-c3ccc(C(=O)O)cc3)c(=O)o2)c1 [Compound 280, 4-[5-(3-cyanophenyl)-2-oxo-1,3,4-oxadiazol-3(2H)-yl]benzoic acid]
melting point: 294 to 295 °C (dec.)

O=C(O)c1cccc(-c2ccn(-c3ccc(O)cc3)n2)c1 [Compound 74, 3-[1-(4-Hydroxy-phenyl)-1H-pyrazol-3-yl]-benzoic acid]
melting point: 228 to 230 °C

O=C(O)c1cccc(-c2ccn(-c3ccc(C(F)(F)F)cc3)c2)c1 (as salt: sodium) [Compound 154, 3-[1-(4-Trifluoromethyl-phenyl)-]-1H-pyrrol-3-yl]-benzoic acid sodium salt]
melting point: 224 to 226 °C

O=C(O)c1cccc(-c2cnn(-c3ccc(F)cc3F)c2)c1 [Compound 179, 3-[1-(2,4-Difluoro-phenyl)-1H-pyrazol-4-yl]-benzoic acid]
melting point: 200 to 202 °C

O=C(O)c1cccc(-n2cc(-c3ccc(F)cc3F)cn2)c1 [Compound 103, 3-[4-(2,4-Difluoro-phenyl)-pyrazol-1-yl]-benzoic acid]
melting point: 283 to 285 °C

Nc1ccc(-c2cnn(-c3cccc(C(=O)O)c3)c2)cc1 [Compound 108, 3-[4-(4-Amino-phenyl)-pyrazol-1-yl]-benzoic acid]
melting point: 209 to 210 °C

O=C(O)c1ccc(-n2cc(-c3ccc(F)cc3F)cn2)cc1 [Compound 104, 4-[4-(2,4-Difluoro-phenyl)-pyrazol-1-yl]-benzoic acid]
melting point: 291 to 293 °C

Cc1ccc(-n2ccc(-c3cccc(C(=O)O)c3)c2)cc1 [Compound 156, 3-(1-p-Tolyl-1H-pyrrol-3-yl)-benzoic acid]
melting point: 178 to 181 °C

O=C(O)c1ccc(-c2ccn(-c3cccs3)n2)cc1 [Compound 259, 4-(1-Thiophen-2-yl-1H-pyrazol-3-yl)-benzoic acid]
melting point: 200 to 202 °C

O=C(O)c1ccc(-c2ccn(-c3ccc(OC(F)(F)F)cc3)n2)cc1 [Compound 218, 4-[1-(4-Trifluoromethoxy-phenyl)-1H-pyrazol-3-yl]-benzoic acid]
melting point: 214 to 215 °C

CCc1ccc(-n2ccc(-c3ccc(C(=O)O)cc3)c2)cc1 [Compound 129, 4-[1-(4-Ethyl-phenyl)-1H-pyrrol-3-yl]-benzoic acid]
melting point: 278 to 280 °C

O=C(O)c1ccc(-n2cc(-c3ccncc3)cn2)cc1 [Compound 116, 4-(4-Pyridin-4-yl-pyrazol-1-yl)-benzoic acid]
melting point: > 350 °C

COc1ccc(-n2cc(-c3cccc(C(=O)O)c3)cn2)cc1 [Compound 97]
melting point: 225 to 227 °C and 223 to 225 °C

O=C(O)c1ccc(-n2cc(-c3ccccc3)cn2)cc1 [Compound 99, 4-(4-Phenyl-pyrazol-1-yl)-benzoic acid]
melting point: 267 to 269 °C

O=C(O)c1cccc(-c2ccn(-c3ccc(F)c(F)c3)n2)c1 [Compound 68, 3-[1-(3,4-Difluoro-phenyl)-1H-pyrazol-3-yl]-benzoic acid]
melting point: 240 to 244 °C

COc1ccc2c(c1)-c1nn(-c3ccc(C(=O)O)cc3)cc1CC2 [Compound 145, 4-(8-Methoxy-4,5-dihydro-benzo[g]indazol-2-yl)-benzoic acid]
melting point: 290 to 292 °C

COc1cccc(-n2cnc(-c3ccc(C(=O)O)cc3)n2)c1
melting point: 203 to 205 °C

COc1ccc(-c2ccn(-c3ccc(C(=O)O)cc3)n2)cc1 [Compound 219, 4-[3-(4-Methoxy-phenyl)-pyrazol-1-yl]-benzoic acid]
melting point: 268 to 270 °C

CC(C)c1ccc(-c2ccn(-c3cccc(C(=O)O)c3)c2)cc1 [Compound 287]
melting point: 244 to 245 °C

O=C(O)c1cccc(-n2cc(-c3nc4ccccc4o3)cn2)c1 [Compound 121, 3-(4-Benzooxazol-2-yl-pyrazol-1-yl)-benzoic acid]
melting point: 331 to 333 °C

CC(C)c1ccc(-n2cnc(-c3cccc(C(=O)O)c3)c2)cc1
melting point: 225 to 226 °C

O=C(O)c1ccc(-c2cnn(-c3ccc(C(F)(F)F)cc3)c2)cc1 [Compound 236, 4-[1-(4-Trifluoromethyl-phenyl)-1H-pyrazol-4-yl]-benzoic acid]
melting point: 271 to 273 °C

CC(C)c1ccc(-c2cn(-c3cccc(C(=O)O)c3)c(N)n2)cc1 [Compound 1, 3-[2-amino-4-(4-isopropylphenyl)-1H-imidazol-1-yl]benzoic acid]
melting point: 279 to 282 °C (dec.)

CC(C)c1ccc(-c2nn(-c3cccc(C(=O)O)c3)c(=O)o2)cc1 [Compound 279]
melting point: 218 to 220 °C

CC(C)c1ccc(-c2nn(-c3ccc(C(=O)O)cc3)c(=S)o2)cc1 [Compound 285, 4-[5-(4-Isopropyl-phenyl)-2-thioxo-[1,3,4]oxadiazol-3-yl]-benzoic acid]
melting point: 239 to 240 °C

O=C(O)c1cccc(-n2cc3c(n2)-c2ccccc2CC3)c1 [Compound 137, 3-(4,5-Dihydro-benzo[g]indazol-2-yl)-benzoic acid]
melting point: 191 to 192 °C

COc1ccc2c(c1)CCc1cn(-c3ccc(C(=O)O)cc3)nc1-2 [Compound 163, 4-(7-Methoxy-4,5-dihydro-benzo[g]indazol-2-yl)-benzoic acid]
melting point: 279 to 280 °C

O=C(O)c1cccc(-c2cnn(-c3ccc(Cl)cc3)c2)n1 [Compound 54, 6-[1-(4-Chloro-phenyl)-1H-pyrazol-4-yl]-pyridine-2-carboxylic acid]
melting point: 194 to 196 °C

O=C(O)c1cccc(-c2cnn(-c3cccc(OC(F)F)c3)c2)c1 [Compound 172]
melting point: 179 to 181 °C

CCc1ccccc1-n1cnc(-c2cccc(C(=O)O)c2)n1 [Compound 21, 3-[1-(2-Ethyl-phenyl)-1H-[1,2,4]triazol-3-yl]-benzoic acid]
melting point: 176 to 178 °C

Cc1ccc(-c2cn(-c3ccc(C(=O)O)cc3)nn2)cc1 [Compound 201, 4-(4-p-Tolyl-[1,2,3]triazol-1-yl)-benzoic acid]
melting point: 302 to 303 °C

O=C(O)c1cccc(-c2ncn(-c3ccc(F)c(Cl)c3)n2)c1 [Compound 25, 3-[1-(3-Chloro-4-fluoro-phenyl)-1H-[1,2,4]triazol-3-yl]-benzoic acid]
melting point: 270 to 272 °C

Cc1ccc(-n2cnc(-c3cccc(C(=O)O)c3)n2)cc1Cl [Compound 38, 3-[1-(3-Chloro-4-methyl-phenyl)-1H-[1,2,4]triazol-3-yl]-benzoic acid]
melting point: 269 to 272 °C

O=C(O)c1cccc(-c2ncn(-c3ccc(F)cc3)n2)c1 [Compound 13, 3-[1-(4-Fluoro-phenyl)-1H-[1,2,4]triazol-3-yl]-benzoic acid]
melting point: > 310 °C
